The target of one assay is T1, human FPR1 (Homo sapiens, UniProt P21462).
T1 sequence (P21462 1-350): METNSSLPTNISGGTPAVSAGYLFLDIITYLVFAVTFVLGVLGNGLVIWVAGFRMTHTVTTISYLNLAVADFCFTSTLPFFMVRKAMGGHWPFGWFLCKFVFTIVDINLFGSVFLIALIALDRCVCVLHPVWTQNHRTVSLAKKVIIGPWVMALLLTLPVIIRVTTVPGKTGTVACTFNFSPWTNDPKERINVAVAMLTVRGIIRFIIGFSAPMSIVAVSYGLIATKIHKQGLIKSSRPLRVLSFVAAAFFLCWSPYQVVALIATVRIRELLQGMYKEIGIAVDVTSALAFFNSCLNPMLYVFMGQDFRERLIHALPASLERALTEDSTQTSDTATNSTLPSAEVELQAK
The experiment in a line: FPR1 cyclic adenosine monophosphate (cAMP) assay. The assay is classed as cell-based. The following applies: CHO cells overexpressing human FPR1; forskolin 10 μM; inhibition of cAMP production; HTRF; read-out: hFPR1 cAMP2 EC50. In short, it runs like this: (§1)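 CHO cells overexpressing human FPR1 (4,000/well, 10 μM forskolin) or FPR2 (2,000/well, 5 μM forskolin) were incubated with 200 μM IBMX and compound (0.020 nM–100 μM, 1% DMSO) for 30 min at room temperature. Intracellular cAMP was measured by HTRF against a cAMP standard curve, and inhibition of cAMP production was fitted to a 4-parameter logistic.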
In general terms: Cyclic AMP is a second messenger, typically raised through Gs and lowered through Gi signalling.

In the next assay the target is T2, human FPR2 (Homo sapiens, UniProt P25090).
T2 sequence (P25090 1-351): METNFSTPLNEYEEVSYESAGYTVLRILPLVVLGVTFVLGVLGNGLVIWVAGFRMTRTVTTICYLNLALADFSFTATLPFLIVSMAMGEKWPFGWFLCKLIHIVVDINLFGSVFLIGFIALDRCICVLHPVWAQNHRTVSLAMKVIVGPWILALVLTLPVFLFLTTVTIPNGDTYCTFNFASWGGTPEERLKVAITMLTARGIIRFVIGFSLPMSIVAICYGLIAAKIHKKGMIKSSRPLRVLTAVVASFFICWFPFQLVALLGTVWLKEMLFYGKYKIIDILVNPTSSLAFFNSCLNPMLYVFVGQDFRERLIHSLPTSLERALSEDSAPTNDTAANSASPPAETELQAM
The experiment in a line: FPR2 cyclic adenosine monophosphate (cAMP) assay. The following applies: CHO cells overexpressing human FPR2; forskolin 5 μM; inhibition of cAMP production; HTRF; read-out: hFPR2 cAMP2 EC50. It is filed as cell-based. In short, it runs like this: as §1

What is called EC50 is the concentration that produces a half-maximal response.

For `COc1cc(F)c(-n2cc(-c3ccn[nH]3)nc2NC(=O)c2ccc(OC(F)F)cc2)c(F)c1` [Example 80, N-[1-(2,6-difluoro-4-methoxyphenyl)-4-(1H-pyrazol-5-yl)-1H-imidazol-2-yl]-4-(difluoromethoxy)benzamide], the EC50 at human FPR1 came to 500 nM; on human FPR2, 59 nM.
Take `COc1cc(F)c(-n2cc(C3CC(N)C3)nc2NC(=O)c2ccc(OC(F)F)cc2)c(F)c1` (centres unmarked) [Example 81, N-[4-(3-aminocyclobutyl)-1-(2,6-difluoro-4-methoxyphenyl)-1H-imidazol-2-yl]-4-(difluoromethoxy)benzamide]: the EC50 on human FPR1 was 5400 nM; at human FPR2, 4 nM.
Take `COc1cc(F)c(-n2cc(C3CC(NCC(F)(F)F)C3)nc2NC(=O)c2ccc(OC(F)F)cc2)c(F)c1` (centres unmarked) [Example 82, N-(1-(2,6-Difluoro-4-methoxyphenyl)-4-(3-((2,2,2-trifluoroethyl)amino)cyclobutyl)-1H-imidazol-2-yl)-4-(difluoromethoxy)benzamide]: the results for the EC50 on human FPR1 and at human FPR2 were 85 nM and 10 nM, respectively.
For the molecule `COc1cc(F)c(-n2cc(C3CC(NS(C)(=O)=O)C3)nc2NC(=O)c2ccc(OC(F)F)cc2)c(F)c1` (centres unmarked) [Example 83, N-[1-(2,6-difluoro-4-methoxyphenyl)-4-(3-methanesulfonamidocyclobutyl)-1H-imidazol-2-yl]-4-(difluoromethoxy)benzamide], the figures for the EC50 on human FPR1 and at human FPR2 were 400 nM and 5 nM, respectively.

Values taken from US20230373930A1, “AMINOIMIDAZOLE FPR2 AGONISTS” (BRISTOL-MYERS SQUIBB COMPANY, priority 2020, published 2023).
